The source of these data is patent publication US20220243211A1, “PEPTIDE NUCLEIC ACID COMPOSITIONS WITH MODIFIED HOOGSTEEN BINDING SEGMENTS AND METHODS OF USE THEREOF” (Yale University, priority 2019, published 2022).

Data set [1] concerns human CFBE cells. The data set can be described thus: MQAE cAMP-stimulated chloride efflux assay. Format: cell-based. From the text: FIG. 3 is a bar graph showing chloride efflux measured using fluorescent indicator dye N-[ethoxycarbonylmethyl]-6-methoxy-quinolinium bromide (MQAE), in untreated human CFBE cells and those treated with NPs, and those treated with blank particles. One way ANOVA with multiple comparisons was used to analyze chloride efflux in untreated CF cells, blank particle treated CF cells, PNA/DNA particle treated cells and normal human bronchial epithelial cells (16HBE14o-).
CFBE cells (CFBE41o-) and human bronchial epithelial cells (16HBE14o-) (Gruenert, et al., J Cyst Fibros 3 Suppl 2, 191-196 (2004)) were grown with EMEM (Corning) with 10% FBS, 20 mM L-glutamine, and Pen/Strep. Once grown to confluence, cells were trypsinized by first washing with PBS, then adding 0.25% trypsin for 5 minutes, and harvesting with culture media. Once grown to confluence, cells were trypsinized by first washing with 0.05% trypsin, then adding 0.25% trypsin for 5 minutes, and harvesting with RPMI medium with 10% FBS. Cells were frozen in 5% DMSO in culture medium as necessary. NPs were suspended in culture media by vigorous vortexing and water sonication, then added directly to cells at concentrations of 2 mg/mL×10^6 cells (corresponding to approximately 10^9 PNA/DNA molecules delivered to each cell assuming 100% efficiency).
Glass coverslips (22×50 mm) were sterilized by dipping in 70% EtOH and were subsequently placed in 60 mm cell culture dishes (3 per dish.) The plates were exposed to UV irradiation overnight. Cells (˜1×10^6) were seeded in the dish and the cells grew to confluence in MEM media containing 10% FBS, L-glutamine, and pen/strep. At least 12 hours before the experiment, the cells were fed with MEM media containing 5% FBS, L-glutamine, and pen/strep. The experiment was run as previously described (Shenoy, et al., Pediatric research 70, 447-452 (2011)). Briefly, cells were incubated with N-[ethoxycarbonylmethyl]-6-methoxy-quinolinium bromide (MQAE, Invitrogen) in DMSO (100 uL, 30 mM suspended in HEPES Cl solution) for 30 minutes at 37° C. […] MQAE was excited at 354±10 nm and the emitted fluorescence of at least 20 cells was measured at 460±10 nm every five seconds for two minutes. […] The rate of change in MQAE fluorescence (Δarbitrary fluorescence units/sec) was used to calculate Cl^− efflux.
To compare the activity of unmodified (classic) and γPNA treatments on gene editing in human CFBE cells, the cells were treated with either PLGA NPs containing no PNA/mismatched donor DNA (referred to as blank NP), PLGA NPs containing hCF-PNA/donor DNA, PBAE/PLGA/MPG NPs containing hCF-PNA/donor DNA and PBAE/PLGA/MPG NPs containing γhCF-PNA-h/donor DNA. After treatment of the cells, cAMP-stimulated chloride efflux was quantified using the MQAE assay (McNeer, et al., Nat Commun 6, 6952 (2015)). […]

Data set [2] relates to F508del CFTR gene in CFBE cells. Briefly: Allele-specific PCR for gene modification. It counts as cell-based, human. The note with it: CFBE cells treated with PNA/donor DNA NPs. The procedure: Genomic DNA was harvested from cells and purified using the Wizard Genomic DNA Purification kit (Promega, Madison Wis.). Equal amounts of genomic DNA from each sample were subjected to allele-specific PCR (ASPCR), with a gene-specific reverse primer, and an allele-specific forward primer. PCR was performed using a Eppendorf master cycler X50. PCR products were separated on a 1% agarose gel and visualized using a gel imager.
AS-PCR conditions are as follows. Platinum Taq polymerase (Invitrogen, Carlsbad Calif.) was used for PCR reactions: 5 uL betaine, 4.25 uL water, 2.5 uL 10× Platinum Taq PCR buffer, 1.25 uL 50 mM MgCl2, 0.5 uL dNTPs, 0.5 uL each primer at 10 uM, 0.5 uL Platinum Taq polymerase, and 10 uL of genomic DNA at 40 ng/uL. PCR cycler conditions for human CFTR were as follows: 95° C. 2 min, 94° C. 30 sec, 69° C. 1 min, 72° C. 1 min, 94° C. 30 sec, 68° C. 1 min, 72° C. 1 min, 94° C. 30 sec, 67° C. 1 min, 72° C. 1 min, 94° C. 30 sec, 66° C. 1 min, 72° C. 1 min, 94° C. 30 sec, 65° C. 1 min, 72° C. 1 min, [94° C. 30 sec, 65° C. 1 min, 72° C. 1 min]×35 cycles, 72° C. 2 min, hold at 4° C. 1.
Gene-specific reverse primer: (reverse complement starting from nt 80162): 5′ […]

Where [3] appears, read: PBAE/PLGA/MPG NPs with PNA/donor DNA.

With “H-KKK-TJTJJTTT-OOO-TTTCCTCTATGGGTAAG-KKK-NH2 [hCF PNA] (TNTNNTTTTTTCCTCTATGGGTAAG; listed as DNA, chemistry not fully specified)”, the figures for the chloride efflux entry in data set [1] (setting [3]) and in data set [1] (PLGA NPs with PNA/donor DNA) were “further enhanced” and “marked increase in chloride efflux”, respectively. The “gene modification by allele-specific PCR” value in data set [2] is “had the desired gene modification”.
For the substance “H-KKK-TJTJJTTT-OOO-TTTCCTCTATGGGTAAG-KKK-NH2 [γhCF PNA-h] (TNTNNTTTTTTCCTCTATGGGTAAG; listed as DNA, chemistry not fully specified) [tail clamp PNA targeting human CFTR gene with MPγ monomers in Hoogsteen domain]”, in data set [1] (setting [3]), the chloride efflux entry is “no different than non-CF affected HBE cells” and the “chloride efflux compared to untreated cells or blank NPs” value is on record as 7 fold. Besides, the “gene modification by allele-specific PCR” value in data set [2] was “had the desired gene modification”.
